One assay deals with T1, ABCG2 (Homo sapiens, UniProt Q9UNQ0).
T1 sequence (Q9UNQ0 1-655): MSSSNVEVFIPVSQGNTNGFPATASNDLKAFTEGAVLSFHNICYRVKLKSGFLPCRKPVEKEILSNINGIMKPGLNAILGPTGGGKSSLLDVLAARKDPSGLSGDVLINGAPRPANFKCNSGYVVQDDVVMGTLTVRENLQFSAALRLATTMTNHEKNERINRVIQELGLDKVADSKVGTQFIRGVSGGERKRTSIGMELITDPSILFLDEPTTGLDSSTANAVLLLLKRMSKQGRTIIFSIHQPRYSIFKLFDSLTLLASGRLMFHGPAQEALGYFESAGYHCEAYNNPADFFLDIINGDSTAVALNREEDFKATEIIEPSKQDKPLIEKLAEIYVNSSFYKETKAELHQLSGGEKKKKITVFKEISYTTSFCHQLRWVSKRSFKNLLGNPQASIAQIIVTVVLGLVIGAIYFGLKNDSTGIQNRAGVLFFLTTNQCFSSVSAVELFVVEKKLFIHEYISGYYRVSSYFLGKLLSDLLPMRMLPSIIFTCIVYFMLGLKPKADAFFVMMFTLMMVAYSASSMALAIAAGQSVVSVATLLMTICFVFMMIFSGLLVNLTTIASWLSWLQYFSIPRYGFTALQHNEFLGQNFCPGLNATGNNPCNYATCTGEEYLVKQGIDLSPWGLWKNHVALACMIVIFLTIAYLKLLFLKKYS
As to the kind of experiment: biochemical.

A further assay addresses ABCB1 (Homo sapiens, UniProt P08183). The assay can be described thus: biochemical.

Chain of ABCB1 (P08183 whole entry): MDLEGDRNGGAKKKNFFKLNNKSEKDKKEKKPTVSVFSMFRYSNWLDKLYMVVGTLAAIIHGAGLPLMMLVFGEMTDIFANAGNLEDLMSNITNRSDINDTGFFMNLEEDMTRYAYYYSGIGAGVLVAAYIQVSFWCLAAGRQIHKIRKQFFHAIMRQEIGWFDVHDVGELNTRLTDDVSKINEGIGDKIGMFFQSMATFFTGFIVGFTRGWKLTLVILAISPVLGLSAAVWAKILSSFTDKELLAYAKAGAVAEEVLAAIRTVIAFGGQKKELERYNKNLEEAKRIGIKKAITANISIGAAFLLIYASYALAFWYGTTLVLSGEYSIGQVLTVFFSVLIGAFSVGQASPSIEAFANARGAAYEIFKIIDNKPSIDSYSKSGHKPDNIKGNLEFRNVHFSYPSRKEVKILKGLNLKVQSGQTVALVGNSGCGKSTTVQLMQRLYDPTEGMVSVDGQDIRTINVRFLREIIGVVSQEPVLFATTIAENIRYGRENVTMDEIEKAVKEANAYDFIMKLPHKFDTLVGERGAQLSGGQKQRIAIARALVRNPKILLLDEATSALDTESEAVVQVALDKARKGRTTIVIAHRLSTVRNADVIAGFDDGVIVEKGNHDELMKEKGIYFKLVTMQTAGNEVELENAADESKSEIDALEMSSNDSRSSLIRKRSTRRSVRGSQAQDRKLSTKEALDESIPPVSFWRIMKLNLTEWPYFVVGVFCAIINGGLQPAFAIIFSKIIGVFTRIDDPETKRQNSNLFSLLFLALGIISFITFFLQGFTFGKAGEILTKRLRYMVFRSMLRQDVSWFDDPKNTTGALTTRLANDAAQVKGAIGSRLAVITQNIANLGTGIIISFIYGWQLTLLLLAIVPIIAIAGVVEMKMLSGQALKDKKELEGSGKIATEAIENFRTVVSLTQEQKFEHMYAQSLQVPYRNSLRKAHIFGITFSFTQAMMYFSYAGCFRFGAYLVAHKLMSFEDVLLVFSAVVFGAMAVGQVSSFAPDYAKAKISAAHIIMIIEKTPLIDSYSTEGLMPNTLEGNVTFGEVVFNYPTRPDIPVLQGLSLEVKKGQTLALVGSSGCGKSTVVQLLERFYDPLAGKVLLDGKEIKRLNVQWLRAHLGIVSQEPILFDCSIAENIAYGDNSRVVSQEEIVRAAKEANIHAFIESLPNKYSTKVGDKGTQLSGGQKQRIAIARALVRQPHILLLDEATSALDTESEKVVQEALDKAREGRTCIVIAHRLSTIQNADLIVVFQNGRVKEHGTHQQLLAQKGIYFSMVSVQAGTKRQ

Regarding `CC(C)(C)c1cc(NC(=O)Nc2ccc(-c3cn4c(n3)sc3cc(OCCN5CCOCC5)ccc34)cc2)no1` [quizartinib], the results for the half-inhibitory concentration (IC50) against ABCG2 and at ABCB1 were 70 nM and 3300 nM, respectively.

The values are drawn from PMC3743865, “The FLT3 Inhibitor Quizartinib Inhibits ABCG2 at Pharmacologically Relevant Concentrations, with Implications for Both Chemosensitization and Adverse Drug Interactions” (PLoS ONE, 2013).
